In ChEMBL document CHEMBL1132318, “Hydroxylated decahydroquinolines as ligands for the vesicular acetylcholine transporter: synthesis and biological evaluation” (J Med Chem, 1999):

Experiments:
[1] = Displacement of [3H]vesamicol from Vesicular Acetylcholine Transporter (VAChT)
[2] = Binding affinity against Sigma opioid receptor type 1 in guinea pig brain membranes using [3H](+)-pentazocine as radioligand

SMILES | Ki [1] [µM] | Ki [2] [µM]
O[C@@H]1CCN(Cc2cccc(I)c2)C[C@H]1N1CCC(c2ccccc2)CC1 (racemic) | 0.00013 | 
O[C@@H]1CCCC[C@H]1N1CCC(c2ccccc2)CC1 [VESAMICOL] |  | 0.026
